From PubChem BioAssay (NCI)
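Cultured in 96-well plates, cells were exposed to test compound for 48 hours across five concentrations. TGI: concentration producing complete growth inhibition.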 Where a SMILES comes first, the peptide text is derived from it. Bridges are numbered along the chain shown (N, C = ends).

Assays:
Assay in all cases: DTP human tumour cell line panel, 48 h
ACHN renal = tested on: ACHN renal
SK-MEL-5 melanoma = tested on: SK-MEL-5 melanoma
SK-OV-3 ovarian = tested on: SK-OV-3 ovarian
M14 melanoma = tested on: M14 melanoma
T-47D breast = tested on: T-47D breast
A498 renal = tested on: A498 renal
SNB-19 CNS = tested on: SNB-19 CNS
OVCAR-4 ovarian = tested on: OVCAR-4 ovarian
UO-31 renal = tested on: UO-31 renal
SR leukemia = tested on: SR leukemia

Cc1noc(-c2ccc(C(=O)O)[nH]2)c1Br
TGI (ACHN renal): > 100 µM
TGI (SK-MEL-5 melanoma): > 100 µM
TGI (SK-OV-3 ovarian): > 100 µM
TGI (M14 melanoma): > 100 µM
TGI (T-47D breast): 71.4 µM
TGI (A498 renal): > 100 µM
TGI (SNB-19 CNS): > 100 µM
TGI (OVCAR-4 ovarian): > 100 µM
TGI (UO-31 renal): > 100 µM

C/C(N=NS(=O)(=O)c1c(C)cc(C)cc1C)=C1\C=CC=CN1O
TGI (ACHN renal): > 100 µM
TGI (SK-MEL-5 melanoma): > 100 µM
TGI (SK-OV-3 ovarian): > 100 µM
TGI (M14 melanoma): > 100 µM
TGI (SR leukemia): > 100 µM
TGI (A498 renal): > 100 µM
TGI (SNB-19 CNS): > 100 µM
TGI (OVCAR-4 ovarian): > 100 µM
TGI (UO-31 renal): > 100 µM

O=C(NNC(=O)c1ccncc1)C(=O)Nc1cc(Cl)c(Cl)cc1Cl
TGI (ACHN renal): > 100 µM
TGI (SK-MEL-5 melanoma): > 100 µM
TGI (SK-OV-3 ovarian): > 100 µM
TGI (M14 melanoma): > 100 µM
TGI (T-47D breast): > 100 µM
TGI (A498 renal): > 100 µM
TGI (SNB-19 CNS): > 100 µM
TGI (OVCAR-4 ovarian): > 100 µM
TGI (UO-31 renal): > 100 µM

O=C(CCC(NC(=O)OCc1ccccc1)C(=O)OCc1ccccc1)Nc1cccc(OCc2ccccc2)c1 (stereo unspecified)
TGI (ACHN renal): > 100 µM
TGI (SK-OV-3 ovarian): > 100 µM
TGI (M14 melanoma): 38.2 µM
TGI (SR leukemia): 65.5 µM
TGI (T-47D breast): > 100 µM
TGI (SNB-19 CNS): > 100 µM
TGI (OVCAR-4 ovarian): > 100 µM

COc1ccc(NCn2nc(CCCCCCCCc3nn(CNc4ccc(OC)cc4)c(=S)o3)oc2=S)cc1
TGI (ACHN renal): > 100 µM
TGI (SK-MEL-5 melanoma): > 100 µM
TGI (SK-OV-3 ovarian): > 100 µM
TGI (M14 melanoma): > 100 µM
TGI (A498 renal): > 100 µM
TGI (SNB-19 CNS): > 100 µM
TGI (OVCAR-4 ovarian): > 100 µM
TGI (UO-31 renal): > 100 µM

COC(=O)c1c(CC(=O)OC(C)C)cc2n(c1=O)Cc1c-2nc2ccccc2c1OC
TGI (ACHN renal): > 100 µM
TGI (SK-MEL-5 melanoma): > 100 µM
TGI (SK-OV-3 ovarian): > 100 µM
TGI (M14 melanoma): > 100 µM
TGI (SR leukemia): > 100 µM
TGI (A498 renal): > 100 µM
TGI (SNB-19 CNS): > 100 µM
TGI (OVCAR-4 ovarian): > 100 µM
TGI (UO-31 renal): > 100 µM

O=c1cc(-c2ccccc2)oc2cc(OCCCCCCCCCCOc3ccc4c(=O)cc(-c5ccccc5)oc4c3)ccc12
TGI (ACHN renal): > 100 µM
TGI (SK-MEL-5 melanoma): > 100 µM
TGI (SK-OV-3 ovarian): > 100 µM
TGI (M14 melanoma): > 100 µM
TGI (SR leukemia): > 100 µM
TGI (SNB-19 CNS): > 100 µM
TGI (OVCAR-4 ovarian): > 100 µM

O=C(NNC(=O)c1ccc(Cl)cc1NC(=O)C12CC3CC(CC(C3)C1)C2)c1ccc(Cl)cc1
TGI (ACHN renal): 51.6 µM
TGI (SK-MEL-5 melanoma): 36.5 µM
TGI (SK-OV-3 ovarian): 60.3 µM
TGI (M14 melanoma): 57.6 µM
TGI (SR leukemia): 63.8 µM
TGI (T-47D breast): > 100 µM
TGI (SNB-19 CNS): 39.4 µM
TGI (OVCAR-4 ovarian): > 100 µM
TGI (UO-31 renal): 33.7 µM

CCOC(=O)C1=C(N2CCCC2)C(=O)C(C(=O)OCC)C1 (stereo unspecified)
TGI (ACHN renal): > 100 µM
TGI (SK-MEL-5 melanoma): > 100 µM
TGI (SK-OV-3 ovarian): > 100 µM
TGI (M14 melanoma): > 100 µM
TGI (T-47D breast): > 100 µM
TGI (A498 renal): > 100 µM
TGI (SNB-19 CNS): > 100 µM
TGI (OVCAR-4 ovarian): > 100 µM
TGI (UO-31 renal): > 100 µM

Cc1ccc(N2Cc3c(ccc4ccccc34)OP2(=S)N2CCCC2)cc1 (stereo unspecified)
TGI (SK-MEL-5 melanoma): > 100 µM
TGI (SK-OV-3 ovarian): > 100 µM
TGI (A498 renal): > 100 µM
TGI (SNB-19 CNS): > 100 µM
TGI (OVCAR-4 ovarian): > 100 µM
TGI (UO-31 renal): > 100 µM

O=C(Oc1cncc(Cl)c1)c1cc2ccccc2sc1=O
TGI (ACHN renal): > 100 µM
TGI (SK-MEL-5 melanoma): > 100 µM
TGI (SK-OV-3 ovarian): > 100 µM
TGI (M14 melanoma): > 100 µM
TGI (SR leukemia): 76.8 µM
TGI (T-47D breast): > 100 µM
TGI (SNB-19 CNS): > 100 µM
TGI (OVCAR-4 ovarian): > 100 µM
TGI (UO-31 renal): > 100 µM

CC(=O)c1c(-c2ccco2)c(C#N)c(=S)n(C2OC(CO)C(O)C(O)C2O)c1C (stereo unspecified)
TGI (ACHN renal): > 100 µM
TGI (SK-MEL-5 melanoma): > 100 µM
TGI (SK-OV-3 ovarian): > 100 µM
TGI (M14 melanoma): > 100 µM
TGI (SR leukemia): > 100 µM
TGI (T-47D breast): > 100 µM
TGI (SNB-19 CNS): > 100 µM
TGI (OVCAR-4 ovarian): > 100 µM
TGI (UO-31 renal): > 100 µM

O=C(O)C12C=CC(C1)c1ccccc12 (stereo unspecified)
TGI (ACHN renal): > 100 µM
TGI (SK-MEL-5 melanoma): > 100 µM
TGI (SK-OV-3 ovarian): > 100 µM
TGI (M14 melanoma): > 100 µM
TGI (SR leukemia): > 100 µM
TGI (A498 renal): > 100 µM
TGI (SNB-19 CNS): > 100 µM
TGI (OVCAR-4 ovarian): > 100 µM
TGI (UO-31 renal): > 100 µM

C=C1C(=O)OC2C[C@@]3(C)CCCC(=C)C3CC12 (stereo partly specified)
TGI (ACHN renal): 26.9 µM
TGI (SK-MEL-5 melanoma): 20.4 µM
TGI (SK-OV-3 ovarian): 33.7 µM
TGI (M14 melanoma): 20.6 µM
TGI (SR leukemia): > 100 µM
TGI (A498 renal): 19.2 µM
TGI (SNB-19 CNS): 23.4 µM
TGI (OVCAR-4 ovarian): 26.6 µM
TGI (UO-31 renal): 17.1 µM

COC(=O)C1CCC(=O)NCCCCC(NC(=O)C(N)CC(=O)O)C(=O)N1 (stereo not drawn) (H-Asp-Lys-Glu-OMe; lactam 2-3; configuration not given here)
TGI (ACHN renal): > 100 µM
TGI (SK-MEL-5 melanoma): > 100 µM
TGI (SK-OV-3 ovarian): > 100 µM
TGI (M14 melanoma): > 100 µM
TGI (SR leukemia): > 100 µM
TGI (T-47D breast): > 100 µM
TGI (SNB-19 CNS): > 100 µM
TGI (OVCAR-4 ovarian): > 100 µM
TGI (UO-31 renal): > 100 µM

CN1COCN=C1NC#N
TGI (ACHN renal): > 100 µM
TGI (SK-OV-3 ovarian): > 100 µM
TGI (M14 melanoma): > 100 µM
TGI (A498 renal): > 100 µM
TGI (SNB-19 CNS): > 100 µM
TGI (OVCAR-4 ovarian): > 100 µM
TGI (UO-31 renal): > 100 µM

NCCCNCCSP(=O)(O)O
TGI (SK-MEL-5 melanoma): > 750 µM
TGI (SK-OV-3 ovarian): > 750 µM
TGI (A498 renal): > 75 µM
TGI (SNB-19 CNS): > 750 µM
TGI (OVCAR-4 ovarian): > 750 µM
TGI (UO-31 renal): > 750 µM

Cc1cc2ccccc2oc(=O)/c1=N\Nc1ccccc1
TGI (ACHN renal): > 100 µM
TGI (SK-MEL-5 melanoma): > 100 µM
TGI (SK-OV-3 ovarian): 62.8 µM
TGI (M14 melanoma): > 100 µM
TGI (SR leukemia): > 100 µM
TGI (A498 renal): > 100 µM
TGI (SNB-19 CNS): > 100 µM
TGI (OVCAR-4 ovarian): > 100 µM
TGI (UO-31 renal): > 100 µM

O=Cn1c2ccccc2c2ccccc21
TGI (ACHN renal): > 100 µM
TGI (SK-MEL-5 melanoma): > 100 µM
TGI (SK-OV-3 ovarian): > 100 µM
TGI (M14 melanoma): > 100 µM
TGI (SR leukemia): > 100 µM
TGI (A498 renal): > 100 µM
TGI (SNB-19 CNS): > 100 µM
TGI (UO-31 renal): > 100 µM

COc1ccc(/C=C/C(=O)c2cc(CN(C)C)c(O)c(CN(C)C)c2)cc1
TGI (ACHN renal): > 100 µM
TGI (SK-MEL-5 melanoma): 32.4 µM
TGI (SR leukemia): > 100 µM
TGI (T-47D breast): > 100 µM
TGI (A498 renal): 60.3 µM
TGI (SNB-19 CNS): > 100 µM
TGI (UO-31 renal): 86.9 µM

COC(=O)c1ccc(C)cc1C1CN=NC12Cc1cccc(C)c1C2=O (stereo unspecified)
TGI (ACHN renal): > 100 µM
TGI (SK-MEL-5 melanoma): 47.6 µM
TGI (SK-OV-3 ovarian): > 100 µM
TGI (M14 melanoma): 42.1 µM
TGI (SR leukemia): > 100 µM
TGI (T-47D breast): 85.8 µM
TGI (SNB-19 CNS): > 100 µM
TGI (OVCAR-4 ovarian): > 100 µM
TGI (UO-31 renal): 78.3 µM

COc1ccc(Cn2c(=O)c(OS(=O)(=O)C(F)(F)F)c(C)c3cc4ccccc4cc32)cc1
TGI (ACHN renal): > 100 µM
TGI (SK-MEL-5 melanoma): > 100 µM
TGI (SK-OV-3 ovarian): > 100 µM
TGI (M14 melanoma): > 100 µM
TGI (SR leukemia): > 100 µM
TGI (T-47D breast): > 100 µM
TGI (SNB-19 CNS): > 100 µM
TGI (OVCAR-4 ovarian): > 100 µM
TGI (UO-31 renal): > 100 µM

C=C1c2nc3ccccc3n2C=C(c2ccccc2)N1c1ccc(C)cc1
TGI (ACHN renal): > 100 µM
TGI (SK-MEL-5 melanoma): > 100 µM
TGI (SK-OV-3 ovarian): > 100 µM
TGI (M14 melanoma): > 100 µM
TGI (SR leukemia): > 100 µM
TGI (A498 renal): > 100 µM
TGI (SNB-19 CNS): > 100 µM
TGI (OVCAR-4 ovarian): > 100 µM
TGI (UO-31 renal): > 100 µM
